# Laboratory results as given in patent publication US7629371B2, “Cosmetic use of a composition containing at least one oxazoline, serving as an active substance, as a slimming product and/or for preventing and/or treating cellulite” (Laboratoires Expanscience, priority 2003, dated 2009).
# Legend:
# normal human adipocytes [1] = test: Evaluation of lipid synthesis in adipocytes in suspension (Example 6): incorporation of radiolabelled acetate into lipids; assay type: cell-based; details: for decrease of the incorporation of acetate, % of the control: FIG. 1
# Protocol: A solution of OX100, diluted to a concentration of 10^−2 M in DMSO, was tested.
# Normal human adipocytes were isolated from abdominal biopsies (plastic surgery). Immediately after they have been received, the samples are incubated for 30 minutes at 37° C. in the presence of collagenase (supplied by the company Sigma). The adipocyte suspension is subsequently rinsed and diluted three times in the culture medium. The culture medium consists of: • 1.87 mg/ml bicarbonate (supplied by the company Life Technologies), • 25 IU/ml/25 μg/ml of penicillin/streptomycin (supplied by the company Life Technologies), • 2 mM of glutamine (supplied by the company Life Technologies), • 100% v/v of MEM (supplied by the company Merck Eurolab), and • 0.5% w/v of albumin of bovine origin (supplied by the company Sigma). Evaluation of Lipid Synthesis
# The adipocytes in suspension are incubated for 1 hour at 37° C. in the presence of various concentrations of OX100. The OX100 concentrations tested are 20 μM, 4 μM and 0.8 μM.
# A volume of 10 ml of radiolabelled acetate (2-C^14, 60.87 μCi/ml, supplied by the company Amersham) is subsequently added to the preparation.
# After incubation for 4 hours, the lipids are extracted according to the procedure described by Bligh and Dyer, Can J Biochem Physiol, 37, 922, (1959), (methanol/chloroform/water), and evaporated under nitrogen, and the radioactivity incorporated is quantified by liquid scintillation (liquid scintillation device reference LKB 1210, supplied by the company Rackbeta).
# The possible interaction between the radiolabelled acetate and the OX100 was evaluated in order to confirm the specificity of labeling, by incubating the highest concentration of OX100 (20 μM) with acetate alone.
# normal human adipocytes [2] = test: Evaluation of lipid synthesis in adipocytes in suspension (Example 7): incorporation of radiolabelled acetate into lipids; assay type: cell-based; details: for decrease of the incorporation of acetate into lipids, % of the control: FIG. 2
# Protocol: A solution of OX100 (10^−2 M in DMSO) was tested.
# Culture Conditions: They are identical to those of example 6.
# The adipocytes in suspension are incubated for 1 h at 37° C. in the presence of various concentrations of OX100 (10, 20 and 100 μMO). A volume of 10 ml of radiolabelled acetate (2-C^14, 60.87 μCi/ml, Amersham) is subsequently added to the preparation. After incubation for 4 h, the lipids are extracted according to the procedure described by Bligh and Dyer (methanol/chloroform/water), and evaporated under nitrogen, and the radioactivity incorporated is quantified by liquid scintillation (Rackbeta LKB 1210).
# [3] = tested at 10 μM, 1 h preincubation, 4 h with 2-C14 acetate
Compound,inhibition of lipogenesis in human adipocytes (in words) (normal human adipocytes [1]),"decrease of the incorporation of acetate, % of the control (normal human adipocytes [1]; OX100 at 4 μM, 4 h with 2-C14 acetate)","decrease of the incorporation of acetate, % of the control (normal human adipocytes [1]; OX100 at 20 μM, 4 h with 2-C14 acetate)","decrease of the incorporation of acetate into lipids, % of the control (normal human adipocytes [2]; OX100 at 10 μM)","decrease of the incorporation of acetate into lipids, % of the control (normal human adipocytes [2]; OX100 at 20 μM)","decrease of the incorporation of acetate into lipids, % of the control (normal human adipocytes [2]; OX100 at 100 μM)",inhibitory activity on lipid synthesis (in words) (normal human adipocytes [2]; human adipocytes in culture),inhibition of the incorporation of acetate (inhibition/control) (normal human adipocytes [1]; [3]),inhibition of the incorporation of acetate (inhibition/control) (normal human adipocytes [2]; [3])
"CCCCCCCCCCCC1=NC(C)(C)CO1 [OX100, 2-undecyl-4,4-dimethyl-1,3-oxazoline]",capable of inhibiting lipogenesis,25%,31%,35%,38%,39%,significant inhibitory activity,–,–
"C/C=C/C/C=C/CCC(=O)[C@H]1O[C@H]1C(N)=O [ceruline, reference compound]",–,–,–,–,–,–,–,95%,75%
